# Values quoted from earlier work as cited in patent US9687466B2, “Use of dianhydrogalactitol and analogs and derivatives thereof to treat glioblastoma multiforme” (DELMAR PHARMACEUTICALS, INC., priority 0212, dated 2017).
# Settings: cited from earlier work
smiles,measurement,value
O[C@H]([C@H](O)[C@@H](O)CBr)[C@H](O)CBr [dibromodulcitol],absorption by the oral route,rapid and fairly complete
